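1) Cells in 96-well plates. 2) Compound, 48 h, 5 concentrations. 3) Linear interpolation between surrounding doses. 4) Unreached endpoint = highest concentration. Abbreviation: GI50, concentration required for 50% inhibition of growth.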 Calls of active or inactive are those of the source. Cut-off read from the data, not from the text of the source: active = GI50 up to about 1.1 µM and inactive = higher.
Assays:
Experiment in all cases: NCI tumour cell line growth inhibition, 48 h
786-0 = test system: 786-0
A549 = test system: A549
CAKI-1 = test system: CAKI-1
HCT-116 = test system: HCT-116
HOP-92 = test system: HOP-92
IGROV-1 = test system: IGROV-1
M14 = test system: M14
NCI-H226 = test system: NCI-H226
OVCAR-4 = test system: OVCAR-4
RXF 393 = test system: RXF 393
SK-MEL-2 = test system: SK-MEL-2
SNB-19 = test system: SNB-19
SW-620 = test system: SW-620
TK-10 = test system: TK-10
UACC-62 = test system: UACC-62
UO-31 = test system: UO-31
RPMI-8226 = test system: RPMI-8226

| Structure (SMILES) | GI50 (786-0) | GI50 (A549) | GI50 (CAKI-1) | GI50 (HCT-116) | GI50 (HOP-92) | GI50 (IGROV-1) | GI50 (M14) | GI50 (NCI-H226) | GI50 (OVCAR-4) | GI50 (RXF 393) | GI50 (SK-MEL-2) | GI50 (SNB-19) | GI50 (SW-620) | GI50 (TK-10) | GI50 (UACC-62) | GI50 (UO-31) | GI50 (RPMI-8226) |
| --- | --- | --- | --- | --- | --- | --- | --- | --- | --- | --- | --- | --- | --- | --- | --- | --- | --- |
| Cc1[nH]c2ccccc2c1C1Cc2ccccc2N1C(=O)/C=C\C(=O)O (configuration not stated) | 38.7 µM (inactive) | > 100 µM (inactive) | 24.8 µM (inactive) | 47.1 µM (inactive) | 38.2 µM (inactive) | 58.1 µM (inactive) | 57.7 µM (inactive) | 27.9 µM (inactive) | > 100 µM (inactive) | 30.9 µM (inactive) | 21.8 µM (inactive) | 23.3 µM (inactive) | 32.4 µM (inactive) | 45.8 µM (inactive) | 26.2 µM (inactive) | > 100 µM (inactive) |  |
| CCc1ccccc1NC(=O)C(=O)C(C#N)c1c(Cl)cccc1Cl (configuration not stated) | > 100 µM (inactive) | > 100 µM (inactive) | > 100 µM (inactive) | > 100 µM (inactive) | > 100 µM (inactive) | > 100 µM (inactive) | > 100 µM (inactive) | > 100 µM (inactive) |  |  | > 100 µM (inactive) | > 100 µM (inactive) | > 100 µM (inactive) | > 100 µM (inactive) | > 100 µM (inactive) | > 100 µM (inactive) | > 100 µM (inactive) |
| CCOC(=O)C1=C(C)N(NC(=O)Nc2ccccc2)C2(N)N(NC(=O)Nc3ccccc3)C(C)=C(C(=O)OCC)C12C(=O)OCC (configuration not stated) | 45.3 µM (inactive) | 38.3 µM (inactive) |  | 29.9 µM (inactive) | 18.8 µM (inactive) | > 100 µM (inactive) | 33.2 µM (inactive) |  | 29.5 µM (inactive) | 3.09 µM (inactive) | 52.7 µM (inactive) | 38.9 µM (inactive) | 69.7 µM (inactive) | 80.4 µM (inactive) | 49.3 µM (inactive) | 61.7 µM (inactive) | > 100 µM (inactive) |
| N#CCc1c(-c2ccccc2)n(S(=O)(=O)c2ccccc2)c2ccccc12 | > 100 µM (inactive) | > 100 µM (inactive) | > 100 µM (inactive) | 37.1 µM (inactive) | 8.89 µM (inactive) | > 100 µM (inactive) | > 100 µM (inactive) | > 100 µM (inactive) | 37.3 µM (inactive) |  | > 100 µM (inactive) | 63.5 µM (inactive) | > 100 µM (inactive) | > 100 µM (inactive) | 94.2 µM (inactive) | 14.8 µM (inactive) | 31.2 µM (inactive) |
| O=C(O)C[C@H]1CCCCC12CCOC2=O (some centres not stated) | > 100 µM (inactive) | > 100 µM (inactive) | > 100 µM (inactive) | > 100 µM (inactive) | > 100 µM (inactive) | > 100 µM (inactive) | > 100 µM (inactive) | > 100 µM (inactive) | > 100 µM (inactive) | > 100 µM (inactive) | 87.5 µM (inactive) | > 100 µM (inactive) | > 100 µM (inactive) | > 100 µM (inactive) | > 100 µM (inactive) | > 100 µM (inactive) | > 100 µM (inactive) |
| CC(=O)OCC(=O)[C@@]12OC(C)(C)O[C@@H]1C[C@H]1[C@@H]3CC(C=O)=C4C=C(OCCCl)CC[C@]4(C)[C@@]3(F)[C@@H](O)C[C@@]12C [FORMOCORTAL] | 16.1 µM (inactive) | 24.5 µM (inactive) |  | 10.4 µM (inactive) | 20.9 µM (inactive) | 32.7 µM (inactive) | 20.6 µM (inactive) | 17.3 µM (inactive) | 19.9 µM (inactive) | 5.93 µM (inactive) | 20.7 µM (inactive) | 30.2 µM (inactive) | 39 µM (inactive) | 33.9 µM (inactive) | > 100 µM (inactive) | 32.2 µM (inactive) | 2.58 µM (inactive) |
| CCN1C(=O)N(C)C(O)c2c1nc1ccccn1c2=O (configuration not stated) | 28.5 µM (inactive) | 34.2 µM (inactive) |  | 28.6 µM (inactive) | 25.6 µM (inactive) | 32.7 µM (inactive) | 32.1 µM (inactive) | 60.7 µM (inactive) | 33 µM (inactive) | 23 µM (inactive) | 22.2 µM (inactive) | 39.4 µM (inactive) | 35.9 µM (inactive) | 22.1 µM (inactive) | 0.103 µM (active) | 47.6 µM (inactive) | 27 µM (inactive) |
| Cc1cc(Br)ccc1/N=N/c1c(C)nn(-c2ccccc2)c1-c1ccccc1 | 58.3 µM (inactive) | 81.8 µM (inactive) | 71.3 µM (inactive) | 9.08 µM (inactive) | 98.6 µM (inactive) | 93.5 µM (inactive) | > 100 µM (inactive) |  | > 100 µM (inactive) | 33.3 µM (inactive) | > 100 µM (inactive) | > 100 µM (inactive) | 81.5 µM (inactive) | > 100 µM (inactive) | 27 µM (inactive) | > 100 µM (inactive) | > 100 µM (inactive) |

— ChEMBL document CHEMBL1201862, “PubChem BioAssay data set” (2004)
